Experimental data published in PMC10224441, “Structural Manipulations of Marine Natural Products Inspire a New Library of 3-Amino-1,2,4-Triazine PDK Inhibitors Endowed with Antitumor Activity in Pancreatic Ductal Adenocarcinoma” (Marine Drugs, 2023).
Structures can show the parent of a compound that is named as a salt. Where two headings read alike, the source gives them in different places.

Key:
[1] = test system: BxPC-3 spheroids; experiment: 3D spheroid cytotoxicity, acid phosphatase (APH) assay, BxPC-3; format: cell-based; details: Homo sapiens, 72 h, acid phosphatase (APH) test, read-out: IC50 (µM) ± S.D. BxPC-3 (3D spheroids)
[2] = target: T1, recombinant human PDK1 (Homo sapiens, UniProt Q15118); experiment: PDK1 ADPGlo Kinase Assay; format: biochemical; details: for IC50: isolated PDK1 isoform, four-parameter logistic model, mean of 3 independent experiments, read-out: IC50 (µM) ± S.D. PDK1
T1 construct: purchased Abcam
Procedure: The ability of the tested compounds to hamper the activity of PDK1-4 isoforms was firstly evaluated by means of a chemioluminescent assay, the ADPGlo™ Kinase Assay kit (Promega Corporation, Madison, WI, USA).
The in vitro inhibitory activity of tested compounds on recombinant human PDK1-4 isoforms (Abcam, Cambridge, MA, USA) was evaluated by using the ADPGlo™ Kinase Assay kit from Promega (Promega Corporation, Madison, WI, USA) following the instructions of the manufacturer, as previously described.

[3] = test system: PSN-1 spheroids; experiment: 3D spheroid cytotoxicity, acid phosphatase (APH) assay, PSN-1; format: cell-based; details: Homo sapiens, PSN1, 72 h, acid phosphatase (APH) test, read-out: IC50 (µM) ± S.D. PSN-1 (3D spheroids)
Procedure: Prompted by these encouraging results, we also screened the newly developed 1,2,4-triazine compounds against 3D spheroids of PDAC KRAS wild-type and mutant cells, to further estimate their anticancer potential in a more predictive environment. […] The PDAC cancer spheroids were treated with tested compounds for 72 h, and cell viability was assessed by means of the acid phosphatase (APH) assay (Table 3). The efficacy of gemcitabine as well as of DCA and DAP was assessed under the same experimental conditions.
Spheroid cultures were obtained by seeding 2.5 × 10^3 PSN-1 cancer cells/well in a round-bottom non-treated tissue culture 96-well plate (Greiner Bio-one, Kremsmünster, Austria) in phenol red-free RPMI-1640 medium (Sigma Chemical Co, St. Louis, MO, USA) containing 10% fetal calf serum and supplemented with 20% methylcellulose stock solution.
An APH-modified assay was used for determining cell viability in 3D spheroids, as previously described. Briefly, the pre-seeded spheroids were treated with fresh medium containing the compound to be studied at the appropriate concentration (range 2.5–200 μM). Triplicate cultures were established for each treatment. After 72 h, each well was treated with 100 μL of the assay buffer (0.1 M sodium acetate, 0.1% Triton-X-100, supplemented with ImmunoPure p-nitrophenyl phosphate; Sigma Chemical Co.) and, following 3 h of incubation, 10 μL of 1 M NaOH solution were added. The inhibition of the cell growth induced by the tested compounds was detected by measuring the absorbance of each well at 405 nm, using a Bio-Rad 680 microplate reader. The mean absorbance for each drug dose was expressed as a percentage of the control untreated well absorbance (T/C) and plotted vs. drug concentration. IC50 values, the drug concentrations that reduce the mean absorbance at 405 nm 50% of those in the untreated control wells, were calculated by the four-parameter logistic (4-PL) model. The evaluation was based on means from at least four independent experiments.

[4] = test system: BxPC-3 cells (KRAS-wild-type PDAC); experiment: 2D cytotoxicity, MTT assay, BxPC-3; format: cell-based; details: Homo sapiens, read-out: IC50 (µM) ± S.D. BxPC-3 (2D)
Procedure: (§1) All newly developed 1,2,4-amino-triazine compounds were screened for their cytotoxic activity against two human PDAC cell lines, namely, a KRAS-wild-type PDAC cell line (BxPC-3 cells) and a KRAS-mutant PDAC cell line (PSN-1 cells). […] The cytotoxicity parameters, expressed in terms of IC50 and obtained after 72 h of drug exposure by MTT assay, are reported in Table 3.
(§2) All tested compounds were dissolved in DMSO just before the experiment, and a calculated amount of drug solution was added to the cell growth medium to a final solvent concentration of 0.5%, which had no detectable effects on cell viability.
(§3) Human pancreatic PSN-1 and BxPC-3 carcinoma cell lines were obtained by American Type Culture Collection (ATCC, Rockville, MD, USA). Cell lines were maintained in the logarithmic phase at 37 °C in a 5% carbon dioxide atmosphere using RPMI-1640 medium (EuroClone) containing 10% fetal calf serum (EuroClone, Milan, Italy), antibiotics (50 units/mL penicillin and 50 μg/mL streptomycin) and 2 mM l-glutamine.
(§4) The growth inhibitory effect on tumor cells was evaluated by means of MTT assay. Briefly, 5 × 10^3 cells/well were seeded in 96-well microplates in a growth medium (100 μL). After 24 h, the medium was removed and replaced with a fresh one containing the compound to be studied at the appropriate concentration. Triplicate cultures were established for each treatment. After 72 h, each well was treated with 10 μL of a 5 mg/mL MTT saline solution, and following 5 h of incubation, 100 μL of a sodium dodecyl sulfate (SDS) solution in HCl 0.01 M was added. After overnight incubation, cell growth inhibition was detected by measuring the absorbance of each well at 570 nm using a Bio-Rad 680 microplate reader. The mean absorbance for each drug dose was expressed as a percentage of the control untreated well absorbance and plotted vs. drug concentration. IC50 values, the drug concentrations that reduce the mean absorbance at 570 nm to 50% of those in the untreated control wells, were calculated by the four-parameter logistic (4-PL) model. The evaluation was based on means from at least four independent experiments.

[5] = test system: PSN-1 cells (KRAS-mutant PDAC); experiment: 2D cytotoxicity, MTT assay, PSN-1; format: cell-based; details: Homo sapiens, read-out: IC50 (µM) ± S.D. PSN-1 (2D)
Procedure: as §1, §2, §3, §4

[6] = target: recombinant human HSP90 (Homo sapiens, UniProt P07900); experiment: HSP90 inhibition assay (Transcreener ADP kit); format: biochemical; details: isolated HSP90; four-parameter logistic model; mean of 3 independent experiments; read-out: IC50 (µM) ± S.D. HSP90
Procedure: Since the ATP binding pockets in PDKs and HSP90 are similar and taking into consideration that these 1,2,4-triazine derivatives conserved a chemical scaffold resembling that of the well-known Hsp90 inhibitor Ganetespib, the most performant PDK inhibitors 4d, 4f, 4h, 5d, 5f, 5h and 5j were also screened for their ability to target HSP90.
The in vitro inhibitory activity of tested compounds on recombinant human HSP90 was assessed by The Transcreener™ ADP kit (Bellbrook Labs, Madison, WI, USA) according to the manufacturer’s protocol as previously described.

[7] = BXPC-3, 72 h exposure, MTT test, 2D culture
[8] = PSN1, 72 h exposure, MTT test, 2D culture

T1 sequence (Q15118 29-436): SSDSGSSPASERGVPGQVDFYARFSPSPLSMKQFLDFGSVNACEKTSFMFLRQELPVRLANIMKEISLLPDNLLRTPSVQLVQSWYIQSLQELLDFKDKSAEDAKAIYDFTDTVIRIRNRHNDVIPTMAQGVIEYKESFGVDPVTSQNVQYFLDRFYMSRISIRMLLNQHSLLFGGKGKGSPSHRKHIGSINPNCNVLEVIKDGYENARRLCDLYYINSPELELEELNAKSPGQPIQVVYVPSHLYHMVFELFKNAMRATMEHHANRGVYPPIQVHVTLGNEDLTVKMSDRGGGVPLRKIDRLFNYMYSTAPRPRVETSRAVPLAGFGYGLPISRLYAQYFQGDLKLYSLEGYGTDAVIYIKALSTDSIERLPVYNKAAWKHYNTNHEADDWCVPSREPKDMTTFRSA

| IC50 [2] | melting point | decrease in potency on PDK1 relative to 5d and 5j ([2]; compared with the other two examined ligands (5d, 5j)) | SMILES | IC50 [1] | IC50 [3] | IC50 [4, 7] | IC50 [5, 8] | IC50 ([4]; BXPC-3, 72 h) | IC50 ([5]; PSN1, 72 h) | IC50 [6] |
| --- | --- | --- | --- | --- | --- | --- | --- | --- | --- | --- |
| 0.31 ± 0.07 µM | 288.2 °C | – | COc1ccc2c(c1)c(-c1nc(N)nnc1-c1cn(C)c3ncccc13)cn2C [5i, 5-(5-Methoxy-1-methyl-1H-indol-3-yl)-6-(1-methyl-1H-pyrrolo[2,3-b]pyridin-3-yl)-1,2,4-triazin-3-amine] | 153 ± 10.3 µM | 112 ± 9.1 µM | 0.31 ± 0.07 µM | 14.9 ± 3.2 µM | – | – | – |
| 0.27 ± 0.08 µM | 304.5 °C | – | Cn1cc(-c2nc(N)nnc2-c2cn(C)c3ncccc23)c2cc(Br)ccc21 [5c, 5-(5-bromo-1-methyl-1H-indol-3-yl)-6-(1-methyl-1H-pyrrolo[2,3-b]pyridin-3-yl)-1,2,4-triazin-3-amine] | 156 ± 11.7 µM | 78.4 ± 5.8 µM | 13.7 ± 2.9 µM | 9.2 ± 1.9 µM | – | – | – |
| 0.32 ± 0.1 µM | 310.3 °C | – | Cn1cc(-c2nc(N)nnc2-c2cn(C)c3ncccc23)c2cc(Cl)ccc21 [5e, 5-(5-Chloro-1-methyl-1H-indol-3-yl)-6-(1-methyl-1H-pyrrolo[2,3-b]pyridin-3-yl)-1,2,4-triazin-3-amine] | 200 ± 16.3 µM | 198 ± 12.4 µM | 16.5 ± 3.8 µM | 14.2 ± 3.1 µM | – | – | – |
| 0.21 ± 0.07 µM | – | – | Cn1cc(-c2nc(N)nnc2-c2cn(C)c3ncc(Br)cc23)c2ccccc21 [5b, 6-(5-Bromo-1-methyl-1H-pyrrolo[2,3-b]pyridin-3-yl)-5-(1-methyl-1H-indol-3-yl)-1,2,4-triazin-3-ylamine] | 68.5 ± 2.5 µM | 73.6 ± 6.8 µM | 9.4 ± 1.3 µM | 5.2 ± 0.9 µM | – | – | – |
| 0.32 ± 0.1 µM | 235.5 °C | – | Cn1cc(-c2nc(N)nnc2-c2cn(C)c3ncccc23)c2ccccc21 [5a, 5-(1-Methyl-1H-indol-3-yl)-6-(1-methyl-1H-pyrrolo[2,3-b]pyridin-3-yl)-1,2,4-triazin-3-amine] | 170 ± 9.4 µM | 78.8 ± 8.5 µM | 27.2 ± 3.7 µM | 22.2 ± 2.7 µM | – | – | – |
| 0.29 ± 0.1 µM | 281.4 °C | – | Cn1cc(-c2nc(N)nnc2-c2cn(C)c3ncccc23)c2cc(F)ccc21 [5g, 5-(5-Fluoro-1-methyl-1H-indol-3-yl)-6-(1-methyl-1H-pyrrolo[2,3-b]pyridin-3-yl)-1,2,4-triazin-3-amine] | 79.7 ± 11.4 µM | 130 ± 11.8 µM | 19.8 ± 3.2 µM | 15.2 ± 4.6 µM | – | – | – |

Continued, molecule first:

| SMILES | IC50 [2] | melting point | decrease in potency on PDK1 relative to 5d and 5j ([2]; compared with the other two examined ligands (5d, 5j)) | IC50 [1] | IC50 [3] | IC50 [4, 7] | IC50 [5, 8] | IC50 ([4]; BXPC-3, 72 h) | IC50 ([5]; PSN1, 72 h) | IC50 [6] |
| --- | --- | --- | --- | --- | --- | --- | --- | --- | --- | --- |
| Cn1cc(-c2nnc(N)nc2-c2cn(C)c3ncccc23)c2ccccc21 [4a, 6-(1-Methyl-1H-indol-3-yl)-5-(1-methyl-1H-pyrrolo[2,3-b]pyridin-3-yl)-1,2,4-triazin-3-amine] | 0.3 ± 0.1 µM | 268.1 °C | – | 141.3 ± 0.1 µM | 97.5 ± 2.8 µM | 15.7 ± 2.2 µM | 11.3 ± 2 µM | – | – | – |
| Nc1ccn([C@@H]2O[C@H](CO)[C@@H](O)C2(F)F)c(=O)n1 [Gemcitabine, gemcitabine hydrochloride, reference compound] | – | – | – | 160 ± 5.6 µM | 103 ± 6.3 µM | 0.02 ± 0.003 µM | 0.1 ± 0.04 µM | – | – | – |
| O=C(O)C(Cl)Cl [DCA, Dichloroacetate, reference compound] | – | – | – | – | 29800 ± 357 µM | – | – | > 1000 µM | > 1000 µM | – |
| Cn1cc(-c2nnc(N)nc2-c2cn(C)c3ncccc23)c2cc(Br)ccc21 [4c, 6-(5-Bromo-1-methyl-1H-indol-3-yl)-5-(1-methyl-1H-pyrrolo[2,3-b]pyridin-3-yl)-1,2,4-triazin-3-amine] | 0.26 ± 0.07 µM | 176.3 °C | – | 76.8 ± 5.1 µM | 55.8 ± 3.5 µM | 9.5 ± 1.7 µM | 7.8 ± 1.5 µM | – | – | – |
| Cn1cc(-c2nnc(N)nc2-c2cn(C)c3ncccc23)c2cc(F)ccc21 [4g, 6-(5-Fluoro-1-methyl-1H-indol-3-yl)-5-(1-methyl-1H-pyrrolo[2,3-b]pyridin-3-yl)-1,2,4-triazin-3-amine] | 0.19 ± 0.04 µM | 267.4 °C | – | 71.5 ± 5.2 µM | 65.5 ± 6.8 µM | 6.5 ± 1.1 µM | 4.5 ± 1.3 µM | – | – | – |
| Cn1cc(-c2nnc(N)nc2-c2cn(C)c3ncc(Br)cc23)c2ccccc21 [4b, 5-(5-Bromo-1-methyl-1H-pyrrolo[2,3-b]pyridin-3-yl)-6-(1-methyl-1H-indol-3-yl)-1,2,4-triazin-3-amine] | 0.33 ± 0.05 µM | 260 °C | – | 224 ± 14.8 µM | 188 ± 13.8 µM | 23.5 ± 3.2 µM | 19.5 ± 2.9 µM | – | – | – |
| Cn1cc(-c2nnc(N)nc2-c2cn(C)c3ncccc23)c2cc(Cl)ccc21 [4e, 6-(5-Chloro-1-methyl-1H-indol-3-yl)-5-(1-methyl-1H-pyrrolo[2,3-b]pyridin-3-yl)-1,2,4-triazin-3-amine] | 0.29 ± 0.06 µM | 178 °C | 6 fold | 160 ± 11.4 µM | 59.6 ± 4.5 µM | 32.3 ± 8.2 µM | 26.5 ± 4.3 µM | – | – | – |
| COc1ccc2c(c1)c(-c1nnc(N)nc1-c1cn(C)c3ncc(Br)cc13)cn2C [4j, 5-(5-Bromo-1-methyl-1H-pyrrolo[2,3-b]pyridin-3-yl)-6-(5-methoxy-1-methyl-1H-indol-3-yl)-1,2,4-triazin-3-amine] | 0.18 ± 0.06 µM | 197.6 °C | – | 160 ± 10.5 µM | 103 ± 8.7 µM | 30.5 ± 3.4 µM | 27.8 ± 3.8 µM | – | – | – |
| O=C(c1ccccc1)C(Cl)Cl [DAP, 2,2-dichloroacetophenone, reference compound] | 212 ± 48 µM | – | – | 78.2 ± 6.2 µM | 87.4 ± 8.9 µM | – | – | 16.5 ± 0.9 µM | 10.2 ± 1.6 µM | 698 ± 83 µM |
| COc1ccc2c(c1)c(-c1nnc(N)nc1-c1cn(C)c3ncccc13)cn2C [4i, 6-(5-methoxy-1-methyl-1H-indol-3-yl)-5-(1-methyl-1H-pyrrolo[2,3-b]pyridin-3-yl)-1,2,4-triazin-3-amine] | 0.33 ± 0.1 µM | 217 °C | – | 189 ± 10.9 µM | 140 ± 7.5 µM | 31.2 ± 5.5 µM | 26.5 ± 4 µM | – | – | – |
